pEC50, pIC50: −log10 of the molar value. Where two headings read alike, the source gives them in different places.
Legend:
A549 = experiment: CCK8 proliferation inhibition, A549; format: cell-based; details: Homo sapiens, 192 h, CCK8, 8 days after drug treatment
HCT-116 = experiment: CCK8 proliferation inhibition, HCT-116; format: cell-based; details: Homo sapiens, 192 h, CCK8, 8 days after drug treatment
SDMA [1] = experiment: SDMA Inhibition Assay in A549 cells; format: cell-based; details: Homo sapiens, A549, 96 hours
[2] = Pharmacokinetic assay in mice; format: in vivo, Balb/c mice; details: mouse; for F: PO 10mpk vs IV 2mpk; for AUC(0-inf) / AUC(0-t) / C0 / MRT inf / Vd / Cmax / Tmax: plasma; for MRT inf: read-out: MRT(0-∞); for Vd: read-out: Vz
In short: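 Male Balb/c mice (6–8 weeks) were dosed 2 mg/kg IV by tail vein or 10 or 100 mg/kg by oral gavage, with the PO group fasted overnight. Orbital blood was taken from 0.083 (IV only) to 24 h for plasma. Cmax, Tmax, CL, Vss, AUC, t1/2 and bioavailability were derived from concentration–time data.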

SDMA [3] = experiment: SDMA Inhibition Assay in HCT-116-MTAP^-/- cells; format: cell-based; details: Homo sapiens, 96 hours
CYP450 3A4 = target: T1, CYP450 3A4 (Homo sapiens, UniProt P08684); experiment: Inhibition of human liver microsome CYP450 enzyme 3A4; format: in vitro ADME
T1 construct: from tissue; host or cells: human liver microsomes
T1 sequence (P08684 whole entry): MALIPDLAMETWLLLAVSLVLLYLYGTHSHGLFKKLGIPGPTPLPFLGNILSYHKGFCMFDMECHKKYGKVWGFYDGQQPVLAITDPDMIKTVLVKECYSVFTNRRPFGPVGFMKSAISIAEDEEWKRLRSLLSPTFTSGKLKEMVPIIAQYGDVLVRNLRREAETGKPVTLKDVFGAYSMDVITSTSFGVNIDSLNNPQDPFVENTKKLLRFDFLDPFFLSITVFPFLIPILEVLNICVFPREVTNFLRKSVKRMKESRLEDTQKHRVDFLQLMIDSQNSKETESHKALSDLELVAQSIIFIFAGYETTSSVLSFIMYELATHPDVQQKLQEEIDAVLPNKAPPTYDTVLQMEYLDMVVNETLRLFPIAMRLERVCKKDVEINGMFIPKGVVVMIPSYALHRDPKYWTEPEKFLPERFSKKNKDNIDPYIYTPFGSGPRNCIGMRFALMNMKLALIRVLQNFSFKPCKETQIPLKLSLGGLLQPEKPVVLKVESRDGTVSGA
Method: 100 mM K-Buffer: 9.5 mL of stock solution A was mixed with 40.5 mL of stock solution B, the total volume was adjusted to 500 mL with ultrapure water, and the buffer was titrated to pH 7.4 with KOH or H3PO4. • Starting material A (1 M potassium dihydrogen phosphate): 136.5 g of potassium dihydrogen phosphate in 1 L of water; • Stock solution B ([…]): 174.2 g of potassium dihydrogen phosphate in 1 L of water.
The test substance powder was prepared into a stock solution at a certain concentration with DMSO or another organic solvent, which was then further diluted with a suitable organic solvent.
The liver microsomal in vitro incubation system for the CYP450 enzyme metabolism phenotype study was a biochemical reaction of the prepared liver microsomes supplemented with a redox coenzyme and an enzyme-specific selective inhibitor under simulated physiological temperature and physiological environment conditions.
The concentration of the parent drug or a metabolite thereof in the incubation solution was determined by LC-MS/MS. and the IC50 value was calculated.

[4] = Pharmacokinetic assay in rats; format: in vivo, SD rats; details: rat; for AUC(0-inf) / AUC(0-t) / C0 / MRT inf / Vd / Cmax / Tmax: plasma; for MRT inf: read-out: MRT(0-∞); for Vd: read-out: Vz
Method: In this experimental example, the pharmacokinetic behavior of the test compounds after administration by intravenous injection (IV) and oral gavage (PO) in SD rats was tested.
On the day of administration, rats were weighed for actual body weight, and the administration volume was calculated. Each compound was tested in two groups with 3 rats in each group; one group was subjected to administration by single intravenous injection, and the other group was subjected to administration by single oral gavage. The whole blood samples were collected via the jugular vein at prescribed time points (0.25 h, 0.5 h, 1 h, 2 h, 4 h, 8 h, and 24 h after administration). After the blood sample collection, the samples were immediately transferred to labeled commercial sample tubes containing K2-EDTA (0.85-1.15 mg), followed by centrifugation (3200× g, 4 °C, 10 min) and plasma collection. The plasma was transferred to a pre-cooled centrifuge tube, frozen in dry ice, and then stored in an ultra-low temperature freezer at -60 °C or lower until the LC-MS/MS analysis was performed.
Plasma concentrations were determined by the LC-MS/MS method. Plasma drug concentration data for the compounds were processed using a non-compartmental model in the WinNonlin Version 6.3 (Pharsight, Mountain View, CA) pharmacokinetic software. The relevant pharmacokinetic parameters were calculated by a linear-log trapezoidal method.

[5] = PO 10mpk (IV reference 2mpk; 0.2mpk for I-7)
[6] = male, Balb/c, 10 mg/kg, PO 10mpk

## Cn1ncc2c(N)nc3cc(F)c(C(=O)N4CCOC[C@@H]4c4ccc5c(c4)OC(F)(F)O5)cc3c21 [Example I-7]
A549
  pEC50: 7.46
HCT-116
  pEC50: 5.94
SDMA [1]
  pEC50: 8.92
[2]; IV 2mpk
  CLz: 13 mL/min/kg
  R_AUC(t/∞): 95.1%
  t1/2z: 1.9 h
[2]; PO 10mpk
  R_AUC(t/∞): 97.1%
  t1/2z: 4.9 h
[2]
  F: 159.9%
[2]; 2 mg/kg, IV 2mpk
  AUC(0-inf): 4.89 µM·h
  AUC(0-t): 4.65 µM·h
  C0: 2620 nM
  MRT inf: 2.7 h
  Vd: 2.3 L/kg
[2]; 10 mg/kg, PO 10mpk
  AUC(0-inf): 39.1 µM·h
  AUC(0-t): 38 µM·h
  Cmax: 5010 nM
  Tmax: 2 h
  MRT inf: 6.1 h
SDMA [3]
  pEC50: 8.70
CYP450 3A4; human, microsomes, pH 7.4
  pIC50: < 5.00
[4]; 0.2 mg/kg, IV 0.2mpk
  AUC(0-inf): 0.22 µM·h
  AUC(0-t): 0.148 µM·h
  C0: 176 nM
  MRT inf: 1.8 h
  Vd: 3.5 L/kg
[4]; 10 mg/kg, PO 10mpk
  AUC(0-inf): 9.6 µM·h
  AUC(0-t): 6.58 µM·h
  Cmax: 781 nM
  Tmax: 4.3 h
  MRT inf: 9.9 h
[4]; IV 0.2mpk
  CLz: 31.7 mL/min/kg
  R_AUC(t/∞): 67%
  t1/2z: 1.3 h
[4]; PO 10mpk
  R_AUC(t/∞): 76.9%
  t1/2z: 8.1 h
[4]; [5]
  F: 89.1%

## Cn1ncc2c(N)nc3cc(F)c(C(=O)N(Cc4ccc5c(c4)OC(F)(F)O5)C4CC4)cc3c21 [Example I-16]
A549
  pEC50: 7.61
HCT-116
  pEC50: 6.03
SDMA [1]
  pEC50: 9.10
[2]; male, Balb/c, 2 mg/kg, IV 2mpk
  AUC(0-inf): 6.37 µM·h
  AUC(0-t): 6.24 µM·h
  C0: 1960 nM
  MRT inf: 4.9 h
  Vd: 4.3 L/kg
[2]; [6]
  AUC(0-inf): 34.5 µM·h
  AUC(0-t): 34.4 µM·h
  Cmax: 4760 nM
  Tmax: 1 h
  MRT inf: 5.2 h
[2]; IV 2mpk
  CLz: 12 mL/min/kg
  R_AUC(t/∞): 97.9%
  t1/2z: 4.4 h
[2]; PO 10mpk
  R_AUC(t/∞): 99.6%
  t1/2z: 3.1 h
[2]
  F: 108%
SDMA [3]
  pEC50: 8.92
CYP450 3A4; human liver microsomes, 3A4, read-out: IC50
  pIC50: < 5.00
[4]; SD, 2 mg/kg, IV 2mpk
  AUC(0-inf): 2.43 µM·h
  AUC(0-t): 2.15 µM·h
  C0: 1140 nM
  MRT inf: 3.1 h
  Vd: 5.6 L/kg
[4]; SD, 10 mg/kg, PO 10mpk
  AUC(0-inf): 13.2 µM·h
  AUC(0-t): 9.06 µM·h
  Cmax: 808 nM
  Tmax: 4.7 h
  MRT inf: 13.2 h
[4]; IV 2mpk
  CLz: 31.7 mL/min/kg
  R_AUC(t/∞): 88.8%
  t1/2z: 2.3 h
[4]; PO 10mpk
  R_AUC(t/∞): 71.5%
  t1/2z: 9.3 h
[4]; [5]
  F: 84%

## Cn1ncc2c(N)nc3cnc(C(=O)N4CCOC[C@@H]4c4ccc5c(c4)OC(F)(F)O5)cc3c21 [Example I-38]
A549
  pEC50: 7.27
HCT-116
  pEC50: 6.50
SDMA [1]
  pEC50: 8.77
[2]; 2 mg/kg, IV 2mpk
  AUC(0-t): 7.87 µM·h
[2]; 100 mg/kg, PO 100mpk
  AUC(0-t): 710 µM·h
  Cmax: 52100 nM
SDMA [3]
  pEC50: 8.82
CYP450 3A4; human, microsomes, pH 7.4
  pIC50: < 5.00
[4]; 2 mg/kg, IV 2mpk
  AUC(0-t): 4 µM·h
[4]; 100 mg/kg, PO 100mpk
  AUC(0-t): 199 µM·h
  Cmax: 10200 nM
[4]; PO 100mpk vs IV 2 mpk
  F: 99%

Source: patent EP4700025A1, “AMIDE COMPOUND, PHARMACEUTICAL COMPOSITION COMPRISING SAME, AND USE THEREOF” (Suzhou Genhouse Bio Co., Ltd., priority 2023, dated 2024)
